Assay [1] relates to Wild type mice. Put plainly: Survival after hFIX DNA-LNP dosing, with or without oral JAK inhibitors (Example 3). Format: in vivo, mouse. As to conditions: 30 minutes prior to and days 1, 2, 3 post 2.5 mpk hFIX DNA-LNP (bCKK-E12 LNP), followed out to 30 days, vs untreated. As for the experimental part:
FIG. 6 illustrates survival of WT mice dosed systemically with 2.5 mpk (50 μg) of human factor IX (hFIX) transgene-encoding plasmid DNA encapsulated in lipid nanoparticles; and either untreated or treated with ruxolitinib or baricitinib orally 30 minutes prior to, and on days 1, 2, and 3 post systemic dosing with hFIX transgene encoding plasmid DNA encapsulated in lipid nanoparticles.
Wild type mice were untreated, or treated (n=5 per group) with JAK inhibitors ruxolitinib or baricitinib orally 30 minutes prior to, and days 1, 2, and 3 post systemic dosing with 2.5 mpk (50 μg) of human factor IX (hFIX) transgene-encoding plasmid DNA encapsulated in lipid nanoparticles (DNA-LNP). The LNP used in the study was formulated with bCKK-E12. Survival of mice in each group was followed out to 30 days (FIG. 6).

Assay [2] relates to Wild type C57BL/6 mice. Put plainly: Transgenic hFIX protein in blood plasma by ELISA one week post-DNA-LNP, anti-IFNAR and/or baricitinib (Example 4). As to conditions: 2.5 mpk hFIX DNA-LNP (bCKK-E12) IV; anti-IFNAR 15 mpk IP 3 hours prior; baricitinib oral 90 minutes prior and daily days 1-6; one week post-dosing. The assay is classed as in vivo, mouse. On the procedure: FIG. 7 illustrates FIX protein levels in blood plasma of mice not treated; or treated orally with baricitinib (“Bar”) 90 minutes prior to DNA-LNP dosing, and then daily on days 1-6 post-DNA-LNP dosing. Transgenic hFIX protein in blood plasma of surviving mice was measured by ELISA one-week post-DNA-LNP dosing.
Wild type C57BL/6 mice were untreated, or treated (n=5 per group) once IP with 15 mpk anti-mouse IFNAR blocking antibody (“anti-IFNAR”; clone MAR1-5A3, described in Dunn et al., Nat Immunol. 2005 July; 6(7):722-9) 3 hours prior to systemically (IV tail injections) dosing with 2.5 mpk (50 μg) of human factor IX (hFIX) transgene-encoding plasmid DNA encapsulated in lipid nanoparticles (DNA-LNP). The LNP used in the study was formulated with bCKK-E12. Mice were treated or not treated with the oral JAK inhibitor baricitinib (“Bar”) 90 minutes prior to DNA-LNP dosing, and then daily on days 1-6 post-DNA-LNP dosing. Transgenic hFIX protein in blood plasma of surviving mice was measured by ELISA one-week post-DNA-LNP dosing (FIG. 7).

For `N#CC[C@H](C1CCCC1)n1cc(-c2[nH]cnc3nccc2-3)cn1` [Ruxolitinib], the “survival of mice dosed with DNA-LNP” value in assay [1] was “dramatically improved survival”.

Consider Baricitinib, for which the “survival of mice dosed with DNA-LNP” value in assay [1] is listed as “dramatically improved survival”. The “DNA-LNP transgene efficacy (hFIX protein in blood plasma, ELISA)” value in assay [2] is listed as “did not boost transgene efficacy”.

(Values after US20250302990A1, “ENHANCING NON-VIRAL DNA DELIVERY AND EXPRESSION” (Spark Therapeutics, Inc., priority 2022, published 2025).)
